Measured values as given in patent US11446391B2, “Amphiphilic dye-coated inorganic nanoparticle clusters” (THE TRUSTEES OF THE UNIVERSITY OF PENNSYLVANIA, priority 2017, dated 2022).

Experiments:
[1] = test system: GBM; conditions: GBM patients, PDT; cited from earlier work
[2] = Ce6 at 667 nm, PpIX at 631 nm; in M-1cm-1 (unit assumed); cited from earlier work
[3] = Vials of free Ce6 or Ce6 nanoclusters in water; assay type: physicochemical; conditions: equal concentrations of Ce6
Protocol: FIG. 43 is a photograph of vials containing solution with free Ce6 or Ce6 nanoclusters in water (at equal concentrations of Ce6).
The size distribution of Ce6 nanoclusters was measured by dynamic light scattering (DLS) in water at 25° C. (FIG. 39). The amphiphilic Ce6 molecules solubilized the PCL, creating stable nanoclusters with an average hydrodynamic diameter of 58±4 nm and an average polydispersity index (PDI) of <0.2. Fluorescence detection takes place when Ce6 is excited at around 404 nm, which then emits a characteristic reference fluorescence peak at approximately 650 nm (FIG. 40).

[4] = Absorbance spectrum in water (solubility); assay type: physicochemical
Protocol: FIGS. 22A-22D. (FIG. 22A) Illustration of Ce6-coated SPION nanoclusters (Ce6-SCs). Iron oxide nanoparticles are stabilized in aqueous media by the self-assembly of amphiphilic PS Chlorin e6 on the surface using a microemulsion. (FIG. 22B) Dynamic light scattering (DLS) of Ce6-SCs in water. […] (FIG. 22C) Particle size and T2 relaxation time was monitored for 6 days in water at 25° C. (FIG. 22D) Magnetic resonance (MR) relaxometry measurements of Ce6-SCs. Inset: T2-weighted image of Ce6-SCs at various concentrations in a microplate. (FIG. 22E) Absorbance spectra of Ce6-SCs (black) and free Ce6 (brown) in water. The inset images are vials containing solutions of Ce6-SCs and free Ce6 in water.
Relaxometry measurements indicated an average r2 value of 301±4 mM^−1 s^−1 and MR images of a phantom confirmed strong T2 contrast relative to water (FIG. 22D).

| behaviour in water [3] | solubility in water judged from absorbance spectrum (peak at ~665 nm) [4] | Molecule | adverse events [1] | overall survival [1] [months] | peak extinction coefficient [2] |
| --- | --- | --- | --- | --- | --- |
|  |  | C=Cc1c(C)c2cc3nc(c(CC(=O)N[C@@H](CC(=O)O)C(=O)O)c4[nH]c(cc5nc(cc1[nH]2)C(C)=C5CC)c(C)c4C(=O)O)[C@@H](CCC(=O)O)[C@@H]3C [talaporfin, mono-L-aspartyl chlorin e6] | only mild adverse events | 24.8 |  |
| aggregate and precipitate in water | poor solubility | Chlorin e6 [Ce6] |  |  | 55,000 |
